Earlier results, collected in patent US6420361B1, “Soil pesticide” (priority 1999, dated 2002).

## CN1CSC(=S)N(C)C1 [TDTT, tetrahydro-3,5-dimethyl-2H-1,3,5-thiadiazine-2-thione]
  Solubility and stability in commonly used agricultural solvents or carriers: not very soluble or stable
Applied as a liquid formulation
  Concentration limit in liquid formulation: less than 15 % by weight
